The nature of data set [1]: Stability in cynomolgus monkey fecal homogenate (anaerobic). It counts as in vitro ADME. The note with it: pH 6.8, 20% cynomolgus monkey fecal homogenate, 37° C., up to 24 hours, read-out: t1/2: Monkey Feces anaerobic (converted). The gist of the method:
(§1)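 Supernatant of 20% pooled fecal homogenate in anaerobic growth medium (pH 6.8, bile salts, cysteine) dosed to 20 μM compound, incubated anaerobically at 37 °C. Samples at 0 min–24 h quenched in acetonitrile/methanol, LC/MS/MS vs internal standard; half-life from first-order exponential fit of percent remaining relative to time 0.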

Data set [2] concerns Natural killer (NK) cells. The data set is classed as cell-based, human. An excerpt: Where not shown, data was not yet determined.
Data set [3] in a line: Stability in simulated intestinal fluid (SIF). It counts as in vitro ADME. The note with it: 37° C.; for SIF t1/2: 100 fold dilution of standard SIF concentration, 20 μM. The gist of the method:
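Peptides at 20 μM final were incubated at 37 °C in SIF (potassium phosphate with pancreatin, pH 6.8), and reactions were quenched with acetonitrile/1% formic acid at time points from 0 min to 24 h. Percent remaining relative to time 0 was determined by LC-MS/MS against an internal standard, and half-life came from a first-order decay fit.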

A short description of data set [4]: Stability in human fecal homogenate (anaerobic). It counts as in vitro ADME. To be noted: pH 6.8, 20% human fecal homogenate, 37° C., up to 24 hours, read-out: t1/2: Human Feces anaerobic. In outline: as §1
Another data set in a line: Stability in rat plasma. It counts as in vitro ADME. The note with it: both sexes, SD rat plasma, EDTA, 37° C., up to 24 hours, read-out: t1/2: Rat Plasma EDTA. The gist of the method:
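Peptides at 20 μM incubated at 37 °C in pooled SD rat EDTA plasma, sampled up to 24 h and quenched in acidified acetonitrile/methanol containing internal standard. LC-MS peak-area ratios expressed as % remaining versus time zero; half-life from first-order exponential decay fit.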

For data set [5], the target named is T1, interleukin-23 receptor (IL-23R), human (human, UniProt Q5VWK5 24-629).
T1 sequence (looked up): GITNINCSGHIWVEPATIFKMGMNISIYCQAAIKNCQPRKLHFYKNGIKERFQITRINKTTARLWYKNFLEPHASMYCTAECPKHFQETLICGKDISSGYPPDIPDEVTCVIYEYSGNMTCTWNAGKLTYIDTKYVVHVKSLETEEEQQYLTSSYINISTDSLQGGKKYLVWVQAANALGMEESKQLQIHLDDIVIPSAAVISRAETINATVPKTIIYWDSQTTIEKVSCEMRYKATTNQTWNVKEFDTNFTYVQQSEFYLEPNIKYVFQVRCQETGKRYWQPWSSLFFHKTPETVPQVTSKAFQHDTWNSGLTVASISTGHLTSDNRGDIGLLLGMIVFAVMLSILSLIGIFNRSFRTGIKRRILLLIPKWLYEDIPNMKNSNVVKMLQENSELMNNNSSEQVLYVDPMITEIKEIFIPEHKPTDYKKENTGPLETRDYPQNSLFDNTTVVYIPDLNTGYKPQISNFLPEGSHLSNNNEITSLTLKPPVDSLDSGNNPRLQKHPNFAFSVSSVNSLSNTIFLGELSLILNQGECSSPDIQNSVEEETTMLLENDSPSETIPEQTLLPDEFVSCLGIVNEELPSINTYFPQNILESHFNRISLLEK
The experiment in a line: cell-based or functional assay.

Data set [6] deals with T1, interleukin-23 receptor (IL-23R), human. The data set can be described thus: cell-based or functional assay. This is another data set of the same source.
The mark [7] stands for this setting: 20% fecal homogenate (supernatant).

Here are results for nine molecules from patent publication US20230129095A1, “PEPTIDE INHIBITORS OF INTERLEUKIN-23 RECEPTOR AND THEIR USE TO TREAT INFLAMMATORY DISEASES” (Protagonist Therapeutics, Inc., priority 2020, published 2023).

*1 amine or outer side, *2 acyl side, *3 side chain or, on linkers, in order; H or OH if unused. Where a SMILES comes first, the peptide text is derived from it. Bridges are numbered along the chain shown (N, C = ends). [ ]: non-standard residue; d: D form. X2 = O=C([C@H](Cc1c[nH]c2c(-c3ccc(F)cc3)cccc12)N[*:1])[*:2]; Trp(7-Ph) = N[C@@H](Cc1c[nH]c2c(-c3ccccc3)cccc12)C(=O)O; Ala(quinolin-3-yl) = N[C@@H](Cc1cnc2ccccc2c1)C(=O)O; 2Nal = N[C@@H](Cc1ccc2ccccc2c1)C(=O)O; AEF = NCCOc1ccc(C[C@H](N)C(=O)O)cc1; Pen = CC(C)(S)[C@H](N)C(=O)O; αMeK = C[C@](N)(CCCCN)C(=O)O; Thp = NC1(C(=O)O)CCOCC1; Abu = CC[C@H](N)C(=O)O

Regarding `CC(=O)NCCCC[C@@H]1NC(=O)[C@H](Cc2c[nH]c3c(-c4ccccc4)cccc23)NC(=O)[C@H]([C@@H](C)O)NC(=O)[C@H](CC(N)=O)NC(=O)[C@@H](NC(C)=O)C(C)(C)SSC(C)(C)[C@@H](C(=O)N[C@@H](Cc2ccc(OCCN)cc2)C(=O)N[C@@H](Cc2cnc3ccccc3c2)C(=O)NC2(C(=O)N[C@@H](CCC(=O)O)C(=O)N[C@@H](CC(N)=O)C(=O)N[C@H](CCCCN)C(N)=O)CCOCC2)NC1=O` [Peptide 13, Ac-[Pen]-N-T-[W(7-Ph)]-[Lys(Ac)]-[Pen]-Phe[4-(2-aminoethoxy)]-[3Quin]-[THP]-E-N-[(D)Lys]-NH2] (Ac-[Pen]NT[Trp(7-Ph)]K(Ac)[Pen][AEF][Ala(quinolin-3-yl)][Thp]EN[dK]-NH2; disulfide 1-6), the half-life at 20 μM (in data set [1] (setting [7]); in data set [4] (setting [7]); in the data set “Stability in rat plasma”) was over 24 h throughout. Besides, 1.55 nM corresponded to half-maximal inhibition in data set [2] (IC50). Besides, the “SIF t1/2” value in data set [3] was 24 h.
Take `CC(=O)NCCCC[C@@H]1NC(=O)[C@H](Cc2c[nH]c3c(-c4ccc(F)cc4)cccc23)NC(=O)[C@H]([C@@H](C)O)NC(=O)[C@H](CC(N)=O)NC(=O)[C@@H](NC(C)=O)C(C)(C)SSC(C)(C)[C@@H](C(=O)N[C@@H](Cc2ccc(OCCN)cc2)C(=O)N[C@@H](Cc2ccc3ccccc3c2)C(=O)N[C@@](C)(CCCCN)C(=O)N[C@@H](CCCCNC(C)=O)C(=O)N[C@@H](CC(N)=O)C(=O)N[C@H](CCCCN)C(N)=O)NC1=O` [Peptide 10, Ac-[Pen]-N-T-[W(7-(4-FPh))]-[Lys(Ac)]-[Pen]-Phe[4-(2-aminoethoxy)]-[2-Nal]-[a-MeLys]-[Lys(Ac)]-N-[(D)Lys)]-NH2] (Ac-[Pen]NT[X2]K(Ac)[Pen][AEF][2Nal][αMeK]K(Ac)N[dK]-NH2; disulfide 1-6): the half-life at 20 μM (in data set [1]; in data set [4]; in the data set “Stability in rat plasma” (pooled)) was over 24 h each time. Moreover, in data set [2], the IC50 (commonly the concentration that inhibits the measured activity by half) worked out at 3.32 nM. Further, the “SIF t1/2” value in data set [3] was 24 h.
For `CC(=O)NCCCC[C@@H]1NC(=O)[C@H](Cc2c[nH]c3c(-c4ccccc4)cccc23)NC(=O)[C@H]([C@@H](C)O)NC(=O)[C@H](CC(N)=O)NC(=O)[C@@H](NC(C)=O)C(C)(C)SSC(C)(C)[C@@H](C(=O)N[C@@H](Cc2ccc(OCCN)cc2)C(=O)N[C@@H](Cc2ccc3ccccc3c2)C(=O)N[C@@](C)(CCCCN)C(=O)N[C@@H](CCCCNC(C)=O)C(=O)N[C@@H](CC(N)=O)C(=O)N[C@H](CC(C)C)C(N)=O)NC1=O` [Peptide 1, Ac-[Pen]-N-T-[W(7-Ph)]-[Lys(Ac)]-[Pen]-Phe[4-(2-aminoethoxy)]-[2-Nal]-[a-MeLys]-[Lys(Ac)]-N-[(D)Leu]-NH2], the half-life at 20 μM in data set [1] is over 24 h; in data set [3] (pH 6.8, 100 fold dilution of standard SIF concentration, read-out: SIF t1/2 (converted)) it was 11.1 h; in data set [4] it was over 24 h; in “Stability in rat plasma” (pooled), over 24 h. Also, in data set [2], the IC50 was found to be 4.3 nM.

B1: Peptide No. 14 (SEQ ID No. 14) (peptide)
peptide: XNTXKXXXXKNK
modifications: Ac-[Pen]-N-T-[W(7-Ph)]-[Lys(Ac)]-[Pen]-Phe[4-(2-aminoethoxy)]-[3Quin]-[a-MeLys]-[Lys(Ac)]-N-[(D)Lys]-NH2; N-terminal acetyl, C-terminal amide; cyclized via Pen-Pen disulfide bond
B1: the “NK Cell Assay IC50 (IFNgamma secretion by human NK cells stimulated with IL-23 and IL-18)” value (“NK Cell Assay IC50” for short) in data set [5] was found to be 2.41 nM. For the same molecule, in data set [6], the “pStat3 HTRF IC50 (DB cells IL23R pSTAT3 cell assay, 0.5 nM IL-23)” value (“pStat3 HTRF IC50” for short) is 0.437 nM.

B2: Peptide No. 16 (SEQ ID No. 16) (peptide)
peptide: XNTXKXXXXKNL
modifications: Ac-[Pen]-N-T-[W(7-Ph)]-[Lys(Ac)]-[Pen]-Phe[4-(2-aminoethoxy)]-[3Quin]-[a-MeLys]-[Lys(Ac)]-N-[(D)Leu]-NH2; N-terminal acetyl, C-terminal amide; cyclized via Pen-Pen disulfide bond
As to B2, the “NK Cell Assay IC50” value in data set [5] is 2.9 nM. Further, in data set [6], the “pStat3 HTRF IC50” value is 0.365 nM.

B3: Peptide No. 1 (SEQ ID No. 1) (peptide)
peptide: XNTXKXXXXKNL
modifications: Ac-[Pen]-N-T-[W(7-Ph)]-[Lys(Ac)]-[Pen]-Phe[4-(2-aminoethoxy)]-[2-Nal]-[a-MeLys]-[Lys(Ac)]-N-[(D)Leu]-NH2; N-terminal acetyl, C-terminal amide; cyclized via Pen-Pen disulfide bond
As to B3, the “NK Cell Assay IC50” value in data set [5] was determined as 4.3 nM. For the same molecule, the “pStat3 HTRF IC50” value in data set [6] amounted to 0.518 nM.

B4: Peptide No. 13 (SEQ ID No. 13) (peptide)
peptide: XNTXKXXXXENK
modifications: Ac-[Pen]-N-T-[W(7-Ph)]-[Lys(Ac)]-[Pen]-Phe[4-(2-aminoethoxy)]-[3Quin]-[THP]-E-N-[(D)Lys]-NH2; N-terminal acetyl, C-terminal amide; cyclized via Pen-Pen disulfide bond
Turning to B4, in data set [5], the “NK Cell Assay IC50” value came to 1.55 nM. The “pStat3 HTRF IC50” value in data set [6] worked out at 0.386 nM.

B5: Peptide No. 15 (SEQ ID No. 15) (peptide)
peptide: XNTXKXXXXENL
modifications: Ac-[Pen]-N-T-[W(7-Ph)]-[Lys(Ac)]-[Pen]-Phe[4-(2-aminoethoxy)]-[3Quin]-[THP]-E-N-[(D)Leu]-NH2; N-terminal acetyl, C-terminal amide; cyclized via Pen-Pen disulfide bond
For the molecule B5, in data set [5], the “NK Cell Assay IC50” value was found to be 2.44 nM. Also, in data set [6], the “pStat3 HTRF IC50” value worked out at 0.186 nM.

B6: Peptide No. 18 (SEQ ID No. 18) (peptide)
peptide: Ac-[Abu]QT[Trp(7-Ph)]K(Ac)C[AEF][2Nal][αMeK]K(Ac)N[dL]-NH2
modifications: thioether 1-6
Consider B6, for which, in data set [5], the “NK Cell Assay IC50” value amounted to 6.28 nM. Moreover, the “pStat3 HTRF IC50” value in data set [6] was found to be 0.993 nM.
